Results on 28 compounds are retold here after patent publication US11649227B2, “Allosteric chromenone inhibitors of phosphoinositide 3-kinase (PI3K) for the treatment of disease” (Petra Pharma Corporation, priority 2020, dated 2023).

human full length PIK3CA H1047R mutant (p110α/p85α complex), sequence (P42336 whole entry H1047R): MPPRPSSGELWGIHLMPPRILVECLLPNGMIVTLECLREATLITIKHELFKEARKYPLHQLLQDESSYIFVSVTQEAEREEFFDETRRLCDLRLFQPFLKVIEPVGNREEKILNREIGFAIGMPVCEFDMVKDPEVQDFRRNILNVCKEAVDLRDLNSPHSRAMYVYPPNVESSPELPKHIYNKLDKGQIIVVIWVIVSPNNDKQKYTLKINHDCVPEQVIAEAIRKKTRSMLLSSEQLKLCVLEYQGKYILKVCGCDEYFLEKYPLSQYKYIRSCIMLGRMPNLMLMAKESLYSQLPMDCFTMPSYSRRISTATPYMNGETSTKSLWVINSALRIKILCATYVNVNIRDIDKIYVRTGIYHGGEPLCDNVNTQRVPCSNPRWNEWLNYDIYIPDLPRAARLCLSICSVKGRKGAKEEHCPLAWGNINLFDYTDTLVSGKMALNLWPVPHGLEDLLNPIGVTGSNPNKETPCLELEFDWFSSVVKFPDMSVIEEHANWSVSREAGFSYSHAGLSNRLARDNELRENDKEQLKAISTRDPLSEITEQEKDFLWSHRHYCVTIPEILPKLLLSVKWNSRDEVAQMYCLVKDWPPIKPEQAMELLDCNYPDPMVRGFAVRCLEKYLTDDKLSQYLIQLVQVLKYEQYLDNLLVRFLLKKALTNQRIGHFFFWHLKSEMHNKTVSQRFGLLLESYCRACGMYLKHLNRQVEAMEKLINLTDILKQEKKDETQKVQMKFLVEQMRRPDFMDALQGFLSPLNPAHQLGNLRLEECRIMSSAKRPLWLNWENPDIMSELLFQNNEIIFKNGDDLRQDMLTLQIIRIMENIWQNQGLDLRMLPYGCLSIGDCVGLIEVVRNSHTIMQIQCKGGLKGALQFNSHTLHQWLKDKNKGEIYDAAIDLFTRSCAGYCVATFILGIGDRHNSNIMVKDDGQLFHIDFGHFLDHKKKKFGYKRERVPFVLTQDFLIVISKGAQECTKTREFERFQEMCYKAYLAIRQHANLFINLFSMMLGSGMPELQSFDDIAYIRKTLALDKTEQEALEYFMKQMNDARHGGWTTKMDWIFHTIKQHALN
human full length PIK3CA H1047R mutant (p110α/p85α complex), sequence (P27986 whole entry partner): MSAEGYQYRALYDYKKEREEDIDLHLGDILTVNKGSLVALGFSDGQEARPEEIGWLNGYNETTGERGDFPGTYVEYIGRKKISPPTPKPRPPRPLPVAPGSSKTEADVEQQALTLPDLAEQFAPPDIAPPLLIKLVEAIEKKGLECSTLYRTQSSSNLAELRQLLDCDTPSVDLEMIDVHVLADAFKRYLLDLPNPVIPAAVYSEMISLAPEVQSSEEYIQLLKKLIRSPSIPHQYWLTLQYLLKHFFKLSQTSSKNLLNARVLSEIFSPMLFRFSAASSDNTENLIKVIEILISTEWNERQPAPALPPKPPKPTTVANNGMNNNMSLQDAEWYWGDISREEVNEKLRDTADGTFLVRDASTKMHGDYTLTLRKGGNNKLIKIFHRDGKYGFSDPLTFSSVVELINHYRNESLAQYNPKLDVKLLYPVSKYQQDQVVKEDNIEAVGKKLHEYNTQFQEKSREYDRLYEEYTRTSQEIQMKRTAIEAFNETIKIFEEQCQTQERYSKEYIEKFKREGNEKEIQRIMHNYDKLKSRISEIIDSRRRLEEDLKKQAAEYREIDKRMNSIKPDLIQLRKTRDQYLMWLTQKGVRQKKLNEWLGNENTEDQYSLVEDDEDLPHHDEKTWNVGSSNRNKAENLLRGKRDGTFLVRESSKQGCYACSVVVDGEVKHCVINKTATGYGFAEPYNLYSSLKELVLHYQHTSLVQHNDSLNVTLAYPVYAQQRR

In the first assay the target is human full length PIK3CA Wild-type (p110α/p85α complex) (Homo sapiens (Human), UniProt P42336). The assay can be described thus: PI3K-Alpha kinase (PIK3CA) activity, wild-type, Transcreener ADP2 FI assay. The conditions noted are these: PI3K-α (PIK3CA) wild-type, biochemical. The method, then: (§1) PI3K-Alpha kinase (PIK3CA) activity, wild-type and H1047R mutant and determining IC50 values for inhibitors
human full length PIK3CA Wild-type (p110α/p85α complex), sequence (P42336 whole entry): as the sequence (P42336 whole entry H1047R) above, with R1047H counted along it
human full length PIK3CA Wild-type (p110α/p85α complex), sequence (P27986 whole entry partner): as the sequence (P27986 whole entry partner) above
(§2) Recombinant, catalytically active human full length PIK3KA Wild-type and H1047R mutant were purchased as 1:1 complex of N-terminal 6×his tagged p110<(catalytic) and untagged p85<(regulatory subunit) from EMD Millipore Sigma (cat. no. 14-602M and 14-792M, respectively). The enzyme stocks were diluted to 5× stocks in buffer (20 mM HEPES pH 7.4, 100 mM NaCl, 0.5 mM EGTA, 0.01% triton-x-100) just before use. PIP2diC8 (Avanti Polar Lipids Inc., cat. no. 850185) or phosphoinositol-4,5-bisphosphate with phosphoserine (PIP2:PS) membrane (Thermo Fisher Scientific, cat. no. PV5100) was used as lipid substrates. PIP2diC8 lyophilized powder and PIP2:PS (1:19) membrane stock (1 mM in PIP2) were separately dissolved in milliQ water to a concentration of 250 uM and stored in −20° C. 10 mM stocks of compounds were serially diluted (3×) in neat DMSO and stored in a dessicator at room temperature. 5× compound stocks in 25% DMSO were prepared fresh from neat DMSO stocks. Wild-type (WT) and H1047R mutant protein, along with buffer components (except ATP), were incubated with or without compound at 27° C. for 1h. After incubation, the reaction was initiated by the addition of 5 uL of 125 uM ATP. A typical assay mixture (25 uL) comprised 40 mM HEPES buffer, pH 7.4, 25 mM MgCl2, 0.01% v/v triton-X-100, 5% v/v DMSO, 20 mM NaCl, 1-5 nM wt or H1047R, 25 uM ATP, and 50 uM PTP2diC8 or PTP2 in membrane. The reaction was allowed to proceed until about […] (2.5 uM ADP) after which time, 10 uL of reaction mixture was quenched with 25 uL of transcreener reagent (Transcreener ADP2 FI assay kit, BellBrook labs, Cat. No. 3013). The contents were incubated at rt for 1h and fluorescence was measured using a plate reader (Paradigm, Molecular Devices). The same assay was also run at pH 6.0 or 6.4 using MOPS buffer (Fisher BioReagents, CAS 1132-61-2). A calibration curve was generated under identical buffer conditions with varying ADP amounts. Using that, the observed fluorescence was converted to uM ADP. A plot between [ADP] and log[I] yielded the dose-response curves that enabled the calculation of IC50s.
`CCc1c(N2CCC(C)(C)CC2)oc2c(C(C)Nc3ccccc3C(=O)O)cc(C)cc2c1=O` (stereo not shown) [Example 55, 2-[1-[2-(4,4-dimethyl-1-piperidyl)-3-ethyl-6-methyl-4-oxo-chromen-8-yl]ethylamino]benzoic acid]: the IC50 – broadly, the midpoint of a concentration-inhibition curve – is 1000 to 5000 nM.
`Cc1cc(C(C)Nc2ccccc2C(=O)O)c2oc(N3CCCC(C)(C)C3)cc(=O)c2c1` (stereo not shown) [Example 65, 2-[1-[2-(3,3-Dimethyl-1-piperidyl)-6-methyl-4-oxo-chromen-8-yl]ethylamino]benzoic acid] gave an IC50 of 5000 to 10000 nM.
`Cc1cc(C(C)Nc2ccccc2C(=O)O)c2oc(N3CC4(CCCCC4)C3)cc(=O)c2c1` (stereo not shown) [Example 88, 2-[1-[2-(2-Azaspiro[3.5]nonan-2-yl)-6-methyl-4-oxo-chromen-8-yl]ethylamino]benzoic acid] gave an IC50 of 5000 to 10000 nM.
In turn, `Cc1cc(C(C)Nc2ccccc2C(=O)O)c2oc(N3Cc4ccc(F)cc4C3)cc(=O)c2c1` (stereo not shown) [Example 105, 2-[1-[2-(5-Fluoroisoindolin-2-yl)-6-methyl-4-oxo-chromen-8-yl]ethylamino]benzoic acid] displayed an IC50 of 5000 to 10000 nM.
On the same count and under the same terms, with `Cc1cc(C(C)Nc2ccccc2C(=O)O)c2oc(N3CCn4cccc4C3)cc(=O)c2c1` (stereo not shown) [Example 171, 2-[1-[2-(3,4-Dihydro-1H-pyrrolo[1,2-a]pyrazin-2-yl)-6-methyl-4-oxo-chromen-8-yl]ethylamino]benzoic acid] the figure was 500 to 1000 nM; with `Cc1cc(C(C)Nc2ccccc2C(=O)O)c2oc(N3CC4CC(C4)C3)cc(=O)c2c1` (stereo not shown) [Example 177, 2-[1-[2-(3-Azabicyclo[3.1.1]heptan-3-yl)-6-methyl-4-oxo-chromen-8-yl]ethylamino]benzoic acid 2,2,2-trifluoroacetic acid], 1000 to 5000 nM; with `Cc1cc(C(C)Nc2ccccc2C(=O)O)c2oc(N3CC(C(C)(F)F)C3)cc(=O)c2c1` (stereo not drawn) [Example 189, 2-[1-[2-[3-(1,1-Difluoroethyl)azetidin-l-yl]-6-methyl-4-oxo-chromen-8-yl]ethylamino]benzoic acid 2,2,2-trifluoroacetic acid], 1000 to 5000 nM.
The same measure, in the same setting: then `Cc1cc(C(C)Nc2ccccc2C(=O)O)c2oc(N3CCc4ccccc4C3)cc(=O)c2c1` (stereo not shown) [Example 233, 2-[1-[2-(3,4-Dihydro-1H-isoquinolin-2-yl)-6-methyl-4-oxo-chromen-8-yl]ethylamino]benzoic acid], with 1000 to 5000 nM; and `Cc1cc(C(C)Nc2sc(Cl)nc2C(=O)O)c2oc(N3Cc4ccccc4C3)cc(=O)c2c1` (stereo not shown) [Example 245, 2-Chloro-5-[1-(2-isoindolin-2-yl-6-methyl-4-oxo-chromen-8-yl)ethylamino]thiazole-4-carboxylic acid 2,2,2-trifluoroacetic acid], with 500 to 1000 nM.
Still for that read-out and setting: then `Cc1cc([C@@H](C)Nc2ccccc2C(=O)O)c2oc(N3CCC(C#N)(c4ccccc4)CC3)c(C)c(=O)c2c1` [Example 288, 2-[[(1R)-1-[2-(4-Cyano-4-phenyl-1-piperidyl)-3,6-dimethyl-4-oxo-chromen-8-yl]ethyl]amino]benzoic acid], with 500 to 1000 nM.
Consider `Cc1cc([C@@H](C)Nc2ccccc2C(=O)O)c2oc(N3CC4(CCC4(F)F)C3)c(C)c(=O)c2c1` [Example 289, 2-[[(1R)-1-[2-(7,7-Difluoro-2-azaspiro[3.3]heptan-2-yl)-3,6-dimethyl-4-oxo-chromen-8-yl]ethyl]amino]benzoic acid], for which the IC50 lay in the range of 500 to 1000 nM.
On the same count and under the same terms, then `Cc1cc(C(C)Nc2ccc(Cl)nc2C(=O)O)c2oc(N3Cc4ccc(F)cc4C3)cc(=O)c2c1` (stereo not shown) [Example 297, 6-Chloro-3-[1-[2-(5-fluoroisoindolin-2-yl)-6-methyl-4-oxo-chromen-8-yl]ethylamino]pyridine-2-carboxylic acid], with 1000 to 5000 nM.
Consider `Cc1cc(C(C)Nc2ccc(Cl)nc2C(=O)O)c2oc(N3Cc4ccc5c(c4C3)OCO5)cc(=O)c2c1` (stereo not shown) [Example 299, 6-Chloro-3-[1-[2-(6,8-dihydro-[1,3]dioxolo[4,5-e]isoindol-7-yl)-6-methyl-4-oxo-chromen-8-yl]ethylamino]pyridine-2-carboxylic acid], for which the IC50 lay in the range of 500 to 1000 nM.
Turning to `Cc1cc(C(C)Nc2ccc(Cl)nc2C(=O)O)c2oc(N3CCC4(CC3)CC4)c(C)c(=O)c2c1` (stereo not shown) [Example 302, 3-[1-[2-(6-Azaspiro[2.5]octan-6-yl)-3,6-dimethyl-4-oxo-chromen-8-yl]ethylamino]-6-chloro-pyridine-2-carboxylic acid], the IC50 was 500 to 1000 nM.
As to `CC(Nc1ccccc1C(=O)O)c1cc(C(F)(F)F)cc2c(=O)cc(N3CCC(F)(F)CC3)oc12` (stereo not shown) [Example 396, 2-[1-[2-(4,4-Difluoro-1-piperidyl)-4-oxo-6-(trifluoromethyl)chromen-8-yl]ethylamino]benzoic acid 2,2,2-trifluoroacetic acid], the IC50 fell in the range of 1000 to 5000 nM.
On the same count and under the same terms, with `CC(Nc1ccccc1C(=O)O)c1cc(F)cc2c(=O)cc(N3CCC4(CC3)CC4)oc12` (stereo not shown) [Example 398, 2-[1-[2-(6-Azaspiro[2.5]octan-6-yl)-6-fluoro-4-oxo-chromen-8-yl]ethylamino]benzoic acid 2,2,2-trifluoroacetic acid] the figure was 1000 to 5000 nM; with `CC(Nc1ccccc1C(=O)O)c1cc(F)cc2c(=O)cc(N3CCC(F)(F)CC3)oc12` (stereo not shown) [Example 399], 1000 to 5000 nM.

For another assay, the target named is human full length PIK3CA H1047R mutant (p110α/p85α complex) (Homo sapiens (Human), UniProt P42336, H1047R). The assay can be described thus: PI3K-Alpha kinase (PIK3CA) activity, H1047R mutant, Transcreener ADP2 FI assay. As to conditions: PI3K-α (PIK3CA) H1047R mutant, biochemical. The method, then:
as §1, §2
In turn, `Cc1cc(C(C)Nc2ccsc2C(=O)O)c2oc(N3CCC(C)(C)CC3)cc(=O)c2c1` (stereo not shown) [Example 39, 3-[1-[2-(4,4-Dimethyl-1-piperidyl)-6-methyl-4-oxo-chromen-8-yl]ethylamino]thiophene-2-carboxylic acid] gave a concentration for half-maximal inhibition (IC50) of 1000 to 5000 nM.
The same measure, in the same setting: then `Cc1cc(C(C)Nc2ccccc2C(=O)O)c2oc(N3CCCC4(CNC(=O)C4)C3)cc(=O)c2c1` (stereo not shown) [Example 61, 2-[1-[6-Methyl-4-oxo-2-(3-oxo-2,7-diazaspiro[4.5]decan-7-yl)chromen-8-yl]ethylamino]benzoic acid], with 1000 to 5000 nM.
Consider `Cc1cc(C(C)Nc2ccccc2C(=O)O)c2oc(N3CC(N(C)C)C3)cc(=O)c2c1` (stereo not shown) [Example 68, 2-[1-[2-[3-(Dimethylamino)azetidin-1-yl]-6-methyl-4-oxo-chromen-8-yl]ethylamino]benzoic acid], for which the IC50 lay in the range of 1000 to 5000 nM.
Consider `Cc1cc(C(C)Nc2ccccc2C(=O)O)c2oc(N3CC4CCC(C3)O4)cc(=O)c2c1` (stereo not shown) [Example 82, 2-[1-[6-Methyl-2-(8-oxa-3-azabicyclo[3.2.1]octan-3-yl)-4-oxo-chromen-8-yl]ethylamino]benzoic acid], for which the half-inhibitory concentration (IC50) is 1000 to 5000 nM.
Still for that read-out and setting: then `Cc1cc(C(C)Nc2ccccc2C(=O)O)c2oc(N3CCS(=O)(=O)CC3)cc(=O)c2c1` (stereo not shown) [Example 117, 2-[1-[2-(1,1-Dioxo-1,4-thiazinan-4-yl)-6-methyl-4-oxo-chromen-8-yl]ethylamino]benzoic acid], with 1000 to 5000 nM; and `Cc1cc(C(C)Nc2ccccc2C(=O)O)c2oc(N3CCn4cnnc4C3)cc(=O)c2c1` (stereo not shown) [Example 163, 2-[1-[2-(6,8-Dihydro-5H-[1,2,4]triazolo[4,3-a]pyrazin-7-yl)-6-methyl-4-oxo-chromen-8-yl]ethylamino]benzoic acid], with 1000 to 5000 nM; and `Cc1cc(C(C)Nc2ccccc2C(=O)O)c2oc(NC34CC5CC(CC(CO)(C5)C3)C4)cc(=O)c2c1` (stereo not shown) [Example 169], with 1000 to 5000 nM.
For the compound `COc1ccc(NC(C)c2cc(C)cc3c(=O)cc(N4Cc5ccccc5C4)oc23)c(C(=O)O)n1` (stereo not shown) [Example 237, 3-[1-(2-Isoindolin-2-yl-6-methyl-4-oxo-chromen-8-yl)ethylamino]-6-methoxy-pyridine-2-carboxylic acid], the IC50 lay within 5000 to 10000 nM.
Take `Cc1cc(C(C)Nc2cccc(F)c2C(=O)O)c2oc(N3Cc4ccc(F)cc4C3)cc(=O)c2c1` (stereo not shown) [Example 238, 2-Fluoro-6-[1-[2-(5-fluoroisoindolin-2-yl)-6-methyl-4-oxo-chromen-8-yl]ethylamino]benzoic acid]: the IC50 fell in the range of 1000 to 5000 nM.
`CNC(=O)C1CCN(c2cc(=O)c3cc(C)cc(C(C)Nc4ccccc4C(=O)O)c3o2)CC1` (stereo not shown) [Example 371, 2-[1-[6-Methyl-2-[4-(methylcarbamoyl)-1-piperidyl]-4-oxo-chromen-8-yl]ethylamino]benzoic acid] gave an IC50 of 1000 to 5000 nM.
As to `COC1CCN(c2cc(=O)c3cc(C)cc(C(C)Nc4ccccc4C(=O)O)c3o2)CC1` (stereo not shown) [Example 373, 2-[1-[2-(4-Methoxy-1-piperidyl)-6-methyl-4-oxo-chromen-8-yl]ethylamino]benzoic acid], the concentration for half-maximal inhibition (IC50) was 500 to 1000 nM.
